Assay results published in US20060062823A1, “Microtubule stabilisers for treating stenosis in stents” (priority 2002, published 2006).

What was measured:
[1] = (+)-Discodermolide release from polymer coatings in plasma; format: physicochemical; details: coated stent pieces in citrated human plasma, 37° C., plasma changed daily
Description: (§1) A stent (e.g. a Multi-Link Vision stent, Guidant Corp.; or a DRIVER stent, Medtronic Corp.) is weighed and then mounted on a rotating or other support for coating with a polymer or other synthetic or biologic carrier used as a drug reservoir. In an example of an application of one such carrier, while the stent is rotating, a 100 μl aliquot of a solution of polylactide glycolide, 0.75 mg/ml of (+)-discodermolide and 0.0015 mg/ml 2,6-di-tert-butyl-4-methylphenol dissolved in a 50:50 mixture of methanol and tetrahydrofuran, is coated onto it. The coated stent is removed from the support and allowed to air-dry. After a final weighing the amount of coating on the stent is determined.
A.5 (+)-Discodermolide Release from Polymer Coatings in Plasma
Release of (+)-discodermolide in plasma can also be studied. 1 cm pieces of a coated stent are put into 1 mL of citrated human plasma (from Helena Labs.) in lyophilized form and reconstituted by adding 1 mL of sterile deionized water. Three sets of stent plasma solutions are incubated at 37° C. and the plasma is changed daily. Different assays are performed on the solution to determine the released (+)-discodermolide concentrations.

[2] = (+)-Discodermolide release from polymer coatings in aqueous solution; format: physicochemical; details: polylactide glycolide coated stent pieces in PBS pH 7.4 or PEG 400/water 40/60 v/v, 37° C., solutions changed daily; stable = less than 10% of variation of the release rate
Description: as §1
A.4 (+)-Discodermolide Release from Polymer Coatings in Aqueous Solution
Four 2 cm pieces of coated stents as described above are placed into 100 mL of phosphate buffer solution (PBS) having a pH of 7.4. Another 4 pieces from each series are placed into 100 mL of polyethylene glycol (PEG)/water solution (40/60 v/v, MW of PEG=400). The stent pieces are incubated at 37° C. in a shaker. The buffer and PEG solutions are changed daily and different assays are performed on the solution to determine the released (+)-discodermolide concentrations.

[3] = tested on: rat carotid artery balloon injury model; test: Inhibition of late neointimal lesion formation in the 28 day rat carotid artery balloon injury model; format: in vivo
rabbit iliac stent model = test: Inhibition of restenosis at 28 days in the rabbit iliac stent model; format: in vivo, New Zealand White rabbit; details: 28 days after stenting, vs placebo
Description: A.2 Inhibition of Restenosis at 28 Days in the Rabbit Iliac Stent Model
A combined angioplasty and stenting procedure is performed in New Zealand White rabbit iliac arteries. Iliac artery balloon injury is performed by inflating a 3.0×9.0 mm angioplasty balloon in the mid-portion of the artery followed by “pull-back” of the catheter for 1 balloon length. Balloon injury is repeated 2 times, and a 3.0×12 mm stent is deployed at 6 atm for 30 seconds in the iliac artery. Balloon injury and stent placement is then performed on the contralateral iliac artery in the same manner. A post-stent deployment angiogram is performed. All animals receive oral aspirin 40 mg/day daily as anti-platelet therapy and are fed standard low-cholesterol rabbit chow. Twenty-eight days after stenting, animals are anesthetized and euthanized and the arterial tree is perfused at 100 mmHg with lactated Ringer's for several minutes, then perfused with 10% formalin at 100 mmHg for 15 minutes. The vascular section between the distal aorta and the proximal femoral arteries is excised and cleaned of periadventitial tissue. The stented section of artery is embedded in plastic and sections are taken from the proximal, middle, and distal portions of each stent. All sections are stained with hematoxylin-eosin and Movat pentachrome stains. Computerized planimetry is performed to determine the area of the internal elastic lamina (IEL), external elastic lamina (EEL) and lumen. The neointima and neointimal thickness is measured both at and between the stent struts. The vessel area is measured as the area within the EEL. Data are expressed as mean±SEM. Statistical analysis of the histologic data is accomplished using analysis of variance (ANOVA) due to the fact that two stented arteries are measured per animal with a mean generated per animal. A P<0.05 is considered statistically significant.
An MIA, e.g. a compound of formula 1, e.g. epothilone B is administered orally by gavage at an initial dose one day prior to stenting, then dosed at 50% of the initial dose from the day of stenting until day 27 post-stenting.

[4] = administered locally to the adventitia via catheter/Alzet minipump

| Compound | drug release from coated stents in plasma [1] | drug release from coated stents [2] | infiltration of CD45+ leukocytes ([3]; administered locally to the adventitia adjacent to the ballooned carotid via catheter/Alzet minipump, day 1) | constrictive remodeling [3, 4] | early (9 days post-ballooning) and late (21-31 days post-ballooning) neointimal lesions [3, 4] | CD45-positive leukocyte infiltration into the vessel wall and adventitia ([3]; rats dosed orally, daily, 1 day after balloon injury) | neointimal lesion formation following balloon injury ([3]; rats dosed orally, daily, at 9 and 12 days) | extent of restenotic lesion formation (rabbit iliac stent model; oral gavage from one day prior to stenting until day 27) | lesion formation in the portions of artery immediately proximal and immediately distal to the stent (rabbit iliac stent model; oral gavage) | number of inflammatory cells, especially in the area surrounding the stent struts (rabbit iliac stent model; oral gavage) |
| --- | --- | --- | --- | --- | --- | --- | --- | --- | --- | --- |
| (+)-discodermolide | stable (+)-discodermolide release | stable (+)-discodermolide release |  |  |  |  |  |  |  |  |
| C/C(=C\c1csc(C)n1)[C@@H]1C[C@@H]2O[C@]2(C)CCC[C@H](C)[C@H](O)[C@@H](C)C(=O)C(C)(C)[C@@H](O)CC(=O)O1 [epothilone B] |  |  | potent inhibition | potent inhibition | potent inhibition | significantly reduce | significantly reduce | marked reduction | inhibited | significantly reduced |
